Source: patent US20220153746A1, “NITROGEN OXIDE-DONATING PDE-5 AND/OR PDE-6 INHIBITOR COMPOUNDS, AND USES THEREOF” (ILDONG PHARMACEUTICAL CO., LTD., priority 2020, published 2022)
Like-named read-outs stand apart in the source and are kept apart here.

Experiment: TD Phase (Groups 1 and 3): plasma and ocular tissue concentrations and pharmacokinetics of Compound 18 and its metabolite Compound 4 after once daily ocular instillation of Compound 18 nanosuspension for 7 days
Assay type: in vivo, New Zealand white rabbits
Conditions: for concentration at 2 h / concentration at 4 h / concentration at 8 h / concentration at 0.5 h / concentration at 1 h / Cmax / Tmax / AUC(0-t) / half-life: male, New Zealand white, rabbit; for concentration at 2 h / concentration at 4 h / concentration at 8 h / concentration at 0.5 h / concentration at 1 h: TD Phase; for concentration at 2 h: Group 3, 2 h; for concentration at 4 h: Group 3, 4 h; for concentration at 8 h: Group 3, 8 h; for concentration at 0.5 h: Group 3, 0.5 h; for concentration at 1 h: Group 1, 1 h; for Cmax / Tmax / AUC(0-t) / half-life: topical or ocular; for AUC(0-t): read-out: AUC0-8
Text: This example illustrates the procedures and results for the levels of Compound 18 and its metabolite Compound 4 in plasma and ocular tissues of normotensive rabbits following ocular instillation of Compound 18 once daily for 7 consecutive days.
Twenty five (25) male New Zealand white rabbits were divided into 5 groups of varying amounts of animals per group.
The Test article, Compound 18 was formulated as a 2% nanosuspension in DI water containing 0.2% PS80 (polyoxyethylenesorbitan, monooleate (Tween 80)) and 0.4% HPMC (hydroxypropylmethylcellulose) at pH 6.77. Referred to herein as “Compound 18 nanosuspension.”
The study consisted of three groups (Groups 1-3) of 19 male rabbits (NZW) that underwent once daily morning ocular installation (1 eyedrop) for 7 consecutive days (Day 0-6). Groups 4-5 each consisted of 3 male rabbits (NZW) that were not dosed.
Blood samples (1 mL) were collected from the jugular vein at the intervals set out below for each group. The samples were then inverted several times following collection and held on wet ice until centrifuged. Samples were centrifuged within 60 minutes of collection under refrigeration (set at 5° C. for 10 minutes at 2000 g.
Group 1 (Pilot Study, terminal blood collection): blood was collected from 3 animals at 1 hour post day 7 dose of Compound 18 nanosuspension.
Group 3 (TD Phase, terminal blood collection): blood was collected from 3 animals at 0.5 hour, 3 animals at 2 hours, 3 animals at 4 hours, and 3 animals at 8 hours post day 7 dose of Compound 18 nanosuspension.
(§1) Group 1 (Pilot Study): 3 animals were terminated at 1 hour post Day 7 dose of Compound 18 nanosuspension. Following blood collection and termination, ocular tissues (aqueous humor, vitreous humor, cornea, iris/ciliary body, lens, optic nerve, retina, sclera/choroid, and trabecular meshwork) were collected from each animal and the tissue weights were recorded. Note: sclera and choroid were collected together. Iris and ciliary body were collected together.
as §1, with “3 (TD Phase):” for “1 (Pilot Study):”, “0.5 hour, 3 animals at 2 hours, 3 animals at 4 hours, and 3 animals at 8 hours” for “1 hour”
Plasma and tissue samples from treated animals (Groups 1-3) were analyzed for Compound 18 and its metabolite Compound 4 concentrations by LC-MS/MS.
Pharmacokinetic analysis was conducted using WinNonlin Version 6.2.1 (Pharsight, Mountain View, Calif.), operating as a validated software system. Noncompartmental analysis was conducted using the extravascular administration model for ocular instillation dosing.
The peak plasma and ocular tissue concentration, time to achieve peak plasma and ocular tissue concentration, half-life, and area under the plasma and ocular tissue concentration-time curve (Cmax, Tmax, T1/2, and AUC) were calculated from the TD phase combined with the pilot study mean animal plasma and ocular tissue concentrations for each sampling time/dose group for Compound 18 and its metabolite Compound 4.
BA Assay: Quantitation Range 0.05 to 100 ng/mL for Compound 18, 0.15 to 100 ng/mL for Compound 4.
3. Pipet 50 μL of each type of pre-spiked ocular tissue samples (AH/VH) for QC samples, 50 μL of incurred aqueous humor, and vitreous humor sample (if applicable) into a 96 well plate.
Ocular Tissues Homogenate Preparation: Incurred rabbit ocular tissues were weighed in Genogrinder tubes (plastic tubes with small beads) at the time of removal from the animal and stored frozen (<−70° C.) until analysis. The rabbit incurred ocular tissues were thawed on wet ice. […]

[1] = iris/ciliary body, topical, 2 mg/day, Mean, read-out: Final Compound 18 Iris/Ciliary Body Conc.
[2] = lens homogenate, topical, 2 mg/day, individual animals, homogenate dilution factor 5, read-out: Compound 18 Lens Homogenate Conc.
[3] = lens, topical, 2 mg/day, Mean, read-out: Final Compound 18 Lens Conc.
[4] = lens, topical, 2 mg/day, individual animals, BQL set to 0, read-out: Final Compound 18 Lens Conc.
[5] = optic nerve, other: ocular instillation (eye drop), 0.798 mg/kg/day, Mean, read-out: Final Compound 18 Optic Nerve Conc.
[6] = plasma, other: ocular instillation (eye drop), 0.8 mg/kg/day, Mean, BQL set to 0, read-out: Compound 18 Plasma Conc.
[7] = plasma, other: ocular instillation (eye drop), 0.8 mg/kg/day, individual animals, read-out: Compound 18 Plasma Conc.
[8] = plasma, other: ocular instillation, 0.8 mg/kg/day, Mean, BQL set to 0, read-out: Compound 18 Plasma Conc.
[9] = retina, other: ocular instillation (eye drop), 0.798 mg/kg/day, Mean, read-out: Final Compound 18 Retina Conc.
[10] = sclera/choroid, other: ocular instillation (eye drop), 0.798 mg/kg/day, Mean, read-out: Final Compound 18 Sclera/Choroid Conc.
[11] = 0.8 mg/kg/day, aqueous humor, Day 7, from mean concentrations
[12] = 0.8 mg/kg/day, cornea, Day 7, from mean concentrations
[13] = 0.8 mg/kg/day, iris/ciliary body, Day 7, from mean concentrations
[14] = 0.8 mg/kg/day, lens, Day 7, from mean concentrations
[15] = 0.8 mg/kg/day, optic nerve, Day 7, from mean concentrations
[16] = 0.8 mg/kg/day, plasma, Day 7, from mean concentrations
[17] = 0.8 mg/kg/day, retina, Day 7, from mean concentrations
[18] = 0.8 mg/kg/day, sclera/choroid, Day 7, from mean concentrations
[19] = 0.8 mg/kg/day, trabecular meshwork, Day 7, from mean concentrations
[20] = 0.8 mg/kg/day, vitreous humor, Day 7, from mean concentrations
[21] = trabecular meshwork, other: ocular instillation (eye drop), 0.798 mg/kg/day, Mean, read-out: Final Compound 18 Trabecular Meshwork Conc.
[22] = vitreous humor, other: ocular instillation (eye drop), 0.8 mg/kg/day, Mean, BQL set to 0, read-out: Compound 18 Vitreous Humor Conc.
[23] = vitreous humor, other: ocular instillation (eye drop), 0.8 mg/kg/day, individual animals, read-out: Compound 18 Vitreous Humor Conc.

SMILES: CCCc1nn(C)c2c(=O)[nH]c(-c3cc(S(=O)(=O)N4CC(CCCO[N+](=O)[O-])C4)ccc3OCC)nc12 [Compound 18, 3-(1-((4-ethoxy-3-(1-methyl-7-oxo-3-propyl-6,7-dihydro-1H-pyrazolo[4,3-d]pyrimidin-5-yl)phenyl)sulfonyl)azetidin-3-yl)propyl nitrate]
- concentration at 2 h [1]: 5.56 ng/g
- concentration at 4 h [1]: 4.87 ng/g
- concentration at 8 h [1]: 0.967 ng/g
- concentration at 0.5 h [2]: 1.27 ng/mL
- concentration at 4 h [2]: 0.0767 ng/mL
- concentration at 8 h (lens, other: ocular instillation (eye drop), 0.798 mg/kg/day, Mean, read-out: Final Compound 18 Lens Conc.): 0 ng/g
- concentration at 1 h [3]: 0 ng/g
- concentration at 1 h [4]: 0 ng/g
- concentration at 0.5 h [3]: 2.12 ng/g
- concentration at 2 h [3]: 0 ng/g
- concentration at 2 h [4]: 0 ng/g
- concentration at 4 h [3]: 0.128 ng/g
- concentration at 8 h [4]: 0 ng/g
- concentration at 1 h (optic nerve homogenate, other: ocular instillation (eye drop), 0.798 mg/kg/day, individual animals, homogenate dilution factor 20, read-out: Compound 18 Optic Nerve Homogenate Conc.): 11.8 ng/mL
- concentration at 1 h [5]: 231 ng/g
- concentration at 1 h (optic nerve, other: ocular instillation (eye drop), 0.798 mg/kg/day, individual animals, read-out: Final Compound 18 Optic Nerve Conc.): 236 ng/g
- concentration at 0.5 h [5]: 110 ng/g
- concentration at 2 h [5]: 378 ng/g
- concentration at 4 h [5]: 128 ng/g
- concentration at 8 h [5]: 61.6 ng/g
- concentration at 2 h [6]: 0.0397 ng/mL
- concentration at 2 h [7]: 0.119 ng/mL
- concentration at 8 h [6]: 0.0172 ng/mL
- concentration at 8 h [7]: 0.0517 ng/mL
- concentration at 1 h [8]: 0.0407 ng/mL
- concentration at 1 h (plasma, other: ocular instillation, 0.8 mg/kg/day, individual animals, read-out: Compound 18 Plasma Conc.): 0.0641 ng/mL
- concentration at 0.5 h [8]: 0.261 ng/mL
- concentration at 0.5 h (retina homogenate, other: ocular instillation (eye drop), 0.798 mg/kg/day, individual animals, homogenate dilution factor 20, read-out: Compound 18 Retina Homogenate Conc.): 0.798 ng/mL
- concentration at 1 h [9]: 18.1 ng/g
- concentration at 0.5 h [9]: 22 ng/g
- concentration at 0.5 h (retina, other: ocular instillation (eye drop), 0.798 mg/kg/day, individual animals, BQL set to 0, read-out: Final Compound 18 Retina Conc.): 16 ng/g
- concentration at 2 h [9]: 34.8 ng/g
- concentration at 4 h [9]: 27.3 ng/g
- concentration at 8 h [9]: 7.17 ng/g
- concentration at 1 h (sclera/choroid homogenate, other: ocular instillation (eye drop), 0.798 mg/kg/day, individual animals, homogenate dilution factor 8, read-out: Compound 18 Sclera/Choroid Homogenate Conc.): 3.89 ng/mL
- concentration at 1 h [10]: 45.3 ng/g
- concentration at 1 h (sclera/choroid, other: ocular instillation (eye drop), 0.798 mg/kg/day, individual animals, read-out: Final Compound 18 Sclera/Choroid Conc.): 31.1 ng/g
- concentration at 0.5 h [10]: 107 ng/g
- concentration at 2 h [10]: 246 ng/g
- concentration at 4 h [10]: 241 ng/g
- concentration at 8 h [10]: 26.8 ng/g
- Cmax [11]: 0.063 ng/mL
- Tmax [11]: 1 h
- AUC(0-t) [11]: 0.0158 ng·h/mL
- Cmax [12]: 181 ng/g
- Tmax [12]: 1 h
- half-life [12]: 1.33 h
- Cmax [13]: 107 ng/g
- Tmax [13]: 1 h
- half-life [13]: 2.25 h
- Cmax [14]: 2.12 ng/g
- Tmax [14]: 0.5 h
- half-life [14]: 0.865 h
- Cmax [15]: 378 ng/g
- Tmax [15]: 2 h
- half-life [15]: 2.43 h
- Cmax [16]: 0.261 ng/mL
- Tmax [16]: 0.5 h
- AUC(0-t) [16]: 0.255 ng·h/mL
- Cmax [17]: 34.8 ng/g
- Tmax [17]: 2 h
- half-life [17]: 2.54 h
- Cmax [18]: 246 ng/g
- Tmax [18]: 2 h
- half-life [18]: 1.76 h
- Cmax [19]: 7.67 ng/g
- Tmax [19]: 1 h
- half-life [19]: 2.64 h
- Cmax [20]: 0.0257 ng/mL
- Tmax [20]: 0.5 h
- AUC(0-t) [20]: 0.0242 ng·h/mL
- Cmax (Cornea, Day 7, Compound 18 0.8 mg/kg ocular instillation once daily, Groups 1 and 3): 181 ng/g
- concentration at 1 h [21]: 7.67 ng/g
- concentration at 0.5 h [21]: 7.01 ng/g
- concentration at 2 h [21]: 11.8 ng/g
- concentration at 4 h [21]: 5.52 ng/g
- concentration at 8 h (trabecular meshwork, other: ocular instillation, 0.8 mg/kg/day, Mean, read-out: Final Compound 18 Trabecular Meshwork Conc.): 1.93 ng/g
- concentration at 0.5 h [22]: 0.0257 ng/mL
- concentration at 0.5 h [23]: 0.0771 ng/mL
- concentration at 2 h [22]: 0.0228 ng/mL
- concentration at 2 h [23]: 0.0683 ng/mL
- AUC0-8 (optic nerve, Day 7, from mean concentrations): 1302 ng·h/g
- AUC0-8 (retina, Day 7, from mean concentrations): 173 ng·h/g
- AUC0-8 (sclera/choroid, Day 7, from mean concentrations): 1234 ng·h/g
- AUC0-8 (trabecular meshwork, Day 7, from mean concentrations): 32.4 ng·h/g
